The values below come from PubChem BioAssay AID624452 (Sanford-Burnham Center for Chemical Genomics, 2012).

This data set deals with human liver microsomes, compound remaining, LC-MS. As to the kind of experiment: metabolic stability in human liver microsomes, ADME assay, biochemical, with and without NADPH, LC-MS, set 2 (AID 624452).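 For all read-outs here: compound left measured after 60 min microsomal incubation at 37 °C.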 The note with it: at 1 µM; for percent remaining without NADPH: measured here: stability without NADPH control. For orientation: Liver microsomes are a subcellular fraction often used to study metabolism.

As to `CCCN1CNc2c(c(=O)[nH]c(=S)n2CCc2ccc(OC)c(OC)c2)C1`, the percent remaining with NADPH turned out to be 48.6% and the percent remaining without NADPH was found to be 65%.
`O=C(COC(=O)C12CC3CC(CC(C3)C1)C2)NCc1ccco1` came in with a percent remaining with NADPH of 84.8% and a percent remaining without NADPH of 100%.
The like results for `O=C(O)c1ccccc1OCc1ccccc1Br` were, in that order, 67.3% and 70%.
In turn, `CCOC(=O)C(C)Oc1cccc2c(=O)n(CC(=O)Nc3ccc4c(c3)OCCO4)ccc12` (centres undefined) showed a percent remaining with NADPH of 68.7% and a percent remaining without NADPH of 75.6%.
On to `O=c1[nH]c2c(s1)C(c1cccnc1)C1C3CCC(C3)C1S2` (centres undefined), for which the percent remaining with NADPH was determined as 7.76% and the percent remaining without NADPH came out at 71.9%.
The like results for `CCCC(=O)Nc1cccc(NC(=O)c2ccccc2Br)c1` were, in that order, 46% and 71.2%.
`O=C(O)c1cccnc1SCCc1ccccc1` yielded a percent remaining with NADPH of 61.4% and a percent remaining without NADPH of 74.9%.
The like results for `CC[C@H]1CN2CCc3cc(OC)c(OC)cc3[C@@H]2C[C@@H]1C[C@H]1NCCc2cc(OC)c(OC)cc21` were, in that order, 45.4% and 89.3%.
On to `COc1ccc(N(C(=O)CCl)C(C(=O)NCCc2ccccc2)c2cccs2)cc1Cl` (centres undefined), for which the percent remaining with NADPH was 1.54% and the percent remaining without NADPH worked out at 39.7%.
The like results for `C=CCn1c(SCC(=O)c2ccc(O)c(O)c2)nnc1-c1ccccc1OC` were, in that order, 30.6% and 65%.
As for `COc1cccc(-c2nc(-c3ccc(NC(=O)Cc4ccccc4OC)cc3)no2)c1`, the percent remaining with NADPH amounted to 11.1% and the percent remaining without NADPH was found to be 69.1%.
The like results for `Cc1cc(C)n(-c2nc(NCCCO)c3c4c(sc3n2)CCCC4)n1` were, in that order, 0.45% and 74%.
The like results for `COc1ccc(CSc2nc(C)cc(=O)[nH]2)cc1` were, in that order, 41.4% and 68.6%.
For `Brc1cc2c(cc1C1Nc3ccccc3C3C=CCC31)OCO2` (centres undefined), in that order: 28.7% and 65.5%.
The compound `O=c1oc2c(O)c(O)cc3c(=O)oc4c(O)c(O)cc1c4c23` came in with a percent remaining with NADPH of 73.1% and a percent remaining without NADPH of 93.1%.
`NC(=O)C1CCN(c2nc(-c3ccc(Br)cc3)cs2)CC1` came in with a percent remaining with NADPH of 56.9% and a percent remaining without NADPH of 62%.
For `CCCN(CCC)CCNC(=O)C1CCN(Cc2nc(-c3ccc(Cl)cc3)oc2C)CC1`, in that order: 13.5% and 75.6%.
Take `COc1ccc(C2CC(c3ccccc3)=NN2c2ccc(S(N)(=O)=O)cc2)cc1` (centres undefined): the percent remaining with NADPH is 59.6% and the percent remaining without NADPH came out at 70%.
The like results for `Cc1ccc(C)c(NS(=O)(=O)c2cc(C(=O)Nc3ccccc3-c3ccccc3)ccc2Cl)c1` were, in that order, 2.07% and 75.9%.
In the case of `Cc1ccccc1N1CCN(c2ncnc3c2cnn3Cc2ccc(Cl)cc2)CC1`, the percent remaining with NADPH stood at 30.9% and the percent remaining without NADPH is 58%.
For `CC(C)C(=O)NC(c1ccco1)c1ccc2cccnc2c1O` (centres undefined), the percent remaining with NADPH stood at 49.2% and the percent remaining without NADPH was 76.4%.
Take `CCCOc1ccc(-c2nc(OC)c3ccccc3n2)cc1`: the percent remaining with NADPH turned out to be 48.3% and the percent remaining without NADPH came out at 81.5%.
